According to patent publication US20240209028A1, “CNP COMPOUNDS” (priority 2022, published 2024):
Starred links: 1 amine or outer side, 2 acyl side, 3 side chain; linkers in the order of their positions; H or OH if unused. Positions of bridges follow the written chain, without caps; N, C: chain ends. Residues, ends and D or L forms follow the SMILES beside them. *: point of attachment. C18 diacid = O=C(O)CCCCCCCCCCCCCCCCC(=O)*; γGlu = O=C(O)[C@H](CCC(=O)[*:2])N[*:1]; AEEA = NCCOCCOCC(=O)O

The compounds below were run against T1, human natriuretic peptide receptor 2 (hNPR2) (Homo sapiens, UniProt P20594) (assay: In vitro hNPR2 activity assay (cGMP GloSensor reporter, HEK293)). Conditions: potency relative to CNP22 (0065).
T1 construct: expressed in transfected cells; host or cells: HEK293 (ATCC CRL-1573), clone 35, co-transfected with pGloSensor-42F
T1 sequence (P20594 23-1047): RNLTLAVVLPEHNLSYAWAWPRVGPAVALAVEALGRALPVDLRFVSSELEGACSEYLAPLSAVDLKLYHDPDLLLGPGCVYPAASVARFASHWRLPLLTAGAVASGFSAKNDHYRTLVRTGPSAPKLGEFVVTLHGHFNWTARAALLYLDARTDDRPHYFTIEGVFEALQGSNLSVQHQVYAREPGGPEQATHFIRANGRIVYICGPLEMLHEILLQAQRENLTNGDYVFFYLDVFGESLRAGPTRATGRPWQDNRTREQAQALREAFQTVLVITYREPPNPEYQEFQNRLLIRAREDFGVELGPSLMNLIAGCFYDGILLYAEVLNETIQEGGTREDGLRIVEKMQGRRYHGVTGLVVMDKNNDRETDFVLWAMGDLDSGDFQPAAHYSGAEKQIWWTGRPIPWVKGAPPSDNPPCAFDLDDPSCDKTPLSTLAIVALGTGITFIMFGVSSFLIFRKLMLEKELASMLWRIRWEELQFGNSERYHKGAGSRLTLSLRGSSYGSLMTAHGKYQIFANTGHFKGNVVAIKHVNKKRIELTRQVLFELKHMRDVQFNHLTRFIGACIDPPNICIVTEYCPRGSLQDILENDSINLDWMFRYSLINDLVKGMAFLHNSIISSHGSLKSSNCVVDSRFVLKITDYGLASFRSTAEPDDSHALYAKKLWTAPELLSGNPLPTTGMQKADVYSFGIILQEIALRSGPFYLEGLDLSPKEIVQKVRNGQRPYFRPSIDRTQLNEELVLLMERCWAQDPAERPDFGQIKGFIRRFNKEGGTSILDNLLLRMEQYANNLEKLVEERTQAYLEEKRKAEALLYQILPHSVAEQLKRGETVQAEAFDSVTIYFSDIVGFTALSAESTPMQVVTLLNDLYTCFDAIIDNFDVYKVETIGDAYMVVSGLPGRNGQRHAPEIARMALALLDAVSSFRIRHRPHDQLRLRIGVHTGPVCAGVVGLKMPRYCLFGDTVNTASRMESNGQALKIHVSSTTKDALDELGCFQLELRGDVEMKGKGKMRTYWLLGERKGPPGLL
Type: cell-based
How it was run: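 Potency is the EC50 from a four-parameter logistic fit, also expressed relative to the in-plate CNP22 control (×100), with at least two replicates. Compounds (ten concentrations, […], HSA-free diluent with 1% OVA, 0.01% Tween20) were incubated 30 min at 37 °C on HEK293 cells co-expressing hNPR2 and a GloSensor cGMP luciferase. Luminescence detected with Bright-Glo.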

Row | Compound | hNPR2 0% HSA. [EC50% rel CNP] [%]
1 | CC[C@H](C)[C@@H]1NC(=O)[C@H](CCCNC(=N)N)NC(=O)[C@H](CC(=O)O)NC(=O)[C@H](CC(C)C)NC(=O)[C@@H]2CCCN2C(=O)[C@H](CC(C)C)NC(=O)CNC(=O)[C@H](Cc2ccccc2)NC(=O)[C@@H](NC(=O)CNC(=O)[C@H](CO)NC(=O)[C@H](CO)NC(=O)[C@H](CC(C)C)NC(=O)CNC(=O)[C@H](CCCCN)NC(=O)[C@H](CCCCN)NC(=O)[C@H](CCC(N)=O)NC(=O)[C@H](C)NC(=O)CNC(=O)[C@H](CCC(=O)O)NC(=O)[C@H](Cc2ccc(O)cc2)NC(=O)[C@H](CCCCN)NC(=O)[C@H](CCCNC(=N)N)NC(=O)[C@H](C)NC(=O)[C@H](CCC(N)=O)NC(=O)[C@@H]2CCCN2C(=O)[C@H](Cc2c[nH]cn2)NC(=O)[C@H](CCC(=O)O)NC(=O)[C@H](CCC(N)=O)NC(=O)CC[C@H](NC(=O)CC[C@H](NC(=O)CC[C@H](NC(=O)CC[C@H](NC(=O)CCCCCCCCCCCCCCCCC(=O)O)C(=O)O)C(=O)O)C(=O)O)C(=O)O)CSSC[C@@H](C(=O)O)NC(=O)CNC(=O)[C@H](CC(C)C)NC(=O)CNC(=O)[C@H](CO)NC(=O)[C@H](CC(C)C)NC(=O)[C@H](CO)NC(=O)CNC1=O [compound 1390] ({C18 diacid-γGlu-γGlu-γGlu-γGlu}-QEHPQARKYEGAQKKGLSSGCFGLPLDRIGSLSGLGC-OH; disulfide 21-37; C-terminus assumed) | 84.6
2 | CC[C@H](C)[C@@H]1NC(=O)[C@H](CCCNC(=N)N)NC(=O)[C@H](CC(=O)O)NC(=O)[C@H](CC(C)C)NC(=O)[C@@H]2CCCN2C(=O)[C@H](CC(C)C)NC(=O)CNC(=O)[C@H](Cc2ccccc2)NC(=O)[C@@H](NC(=O)CNC(=O)[C@H](CCCCN)NC(=O)[C@H](CO)NC(=O)CNC(=O)CNC(=O)[C@H](CCCCN)NC(=O)[C@H](CCCCN)NC(=O)[C@H](CCC(N)=O)NC(=O)[C@H](C)NC(=O)CNC(=O)[C@H](CCC(=O)O)NC(=O)[C@H](Cc2ccc(O)cc2)NC(=O)COCCOCCNC(=O)COCCOCCNC(=O)COCCOCCNC(=O)COCCOCCNC(=O)CC[C@H](NC(=O)CCCCCCCCCCCCCCCCC(=O)O)C(=O)O)CSSC[C@@H](C(=O)O)NC(=O)CNC(=O)[C@H](CC(C)C)NC(=O)CNC(=O)[C@H](CO)NC(=O)[C@H](CC(C)C)NC(=O)[C@H](CO)NC(=O)CNC1=O [compound 1391] ({C18 diacid-γGlu-AEEA-AEEA-AEEA-AEEA}-YEGAQKKGGSKGCFGLPLDRIGSLSGLGC-OH; disulfide 13-29) | 37.9
3 | CC[C@H](C)[C@@H]1NC(=O)[C@H](CCCNC(=N)N)NC(=O)[C@H](CC(=O)O)NC(=O)[C@H](CC(C)C)NC(=O)[C@@H]2CCCN2C(=O)[C@H](CC(C)C)NC(=O)CNC(=O)[C@H](Cc2ccccc2)NC(=O)[C@@H](NC(=O)CNC(=O)[C@H](CCC(N)=O)NC(=O)[C@H](CO)NC(=O)[C@H](CC(C)C)NC(=O)CNC(=O)[C@H](CCCCN)NC(=O)[C@H](CCCCN)NC(=O)[C@H](CCC(N)=O)NC(=O)[C@H](C)NC(=O)CNC(=O)[C@H](CCC(=O)O)NC(=O)[C@H](Cc2ccc(O)cc2)NC(=O)COCCOCCNC(=O)COCCOCCNC(=O)COCCOCCNC(=O)COCCOCCNC(=O)CC[C@H](NC(=O)CCCCCCCCCCCCCCCCC(=O)O)C(=O)O)CSSC[C@@H](C(=O)O)NC(=O)CNC(=O)[C@H](CC(C)C)NC(=O)CNC(=O)[C@H](CO)NC(=O)[C@H](CC(C)C)NC(=O)[C@H](CO)NC(=O)CNC1=O [compound 1393] ({C18 diacid-γGlu-AEEA-AEEA-AEEA-AEEA}-YEGAQKKGLSQGCFGLPLDRIGSLSGLGC-OH; disulfide 13-29) | 27.8
4 | CC[C@H](C)[C@@H]1NC(=O)[C@H](CCCNC(=N)N)NC(=O)[C@H](CC(=O)O)NC(=O)[C@H](CC(C)C)NC(=O)[C@@H]2CCCN2C(=O)[C@H](CC(C)C)NC(=O)CNC(=O)[C@H](Cc2ccccc2)NC(=O)[C@@H](NC(=O)CNC(=O)[C@H](CCC(N)=O)NC(=O)[C@H](CO)NC(=O)[C@H](CC(C)C)NC(=O)CNC(=O)[C@H](CCCCN)NC(=O)[C@H](CCCCN)NC(=O)[C@H](CCC(N)=O)NC(=O)[C@H](C)NC(=O)CNC(=O)[C@H](CCC(=O)O)NC(=O)[C@H](Cc2ccc(O)cc2)NC(=O)[C@H](CCCCN)NC(=O)[C@H](CCCNC(=N)N)NC(=O)[C@H](C)NC(=O)[C@H](CCC(N)=O)NC(=O)[C@@H]2CCCN2C(=O)[C@H](Cc2c[nH]cn2)NC(=O)[C@H](CCC(=O)O)NC(=O)[C@H](CCC(N)=O)NC(=O)COCCOCCNC(=O)COCCOCCNC(=O)CC[C@H](NC(=O)CCCCCCCCCCCCCCCCC(=O)O)C(=O)O)CSSC[C@@H](C(=O)O)NC(=O)CNC(=O)[C@H](CC(C)C)NC(=O)CNC(=O)[C@H](CO)NC(=O)[C@H](CC(C)C)NC(=O)[C@H](CO)NC(=O)CNC1=O [compound 1394] ({C18 diacid-γGlu-AEEA-AEEA}-QEHPQARKYEGAQKKGLSQGCFGLPLDRIGSLSGLGC-OH; disulfide 21-37) | 93.9
5 | CC[C@H](C)[C@@H]1NC(=O)[C@H](CCCNC(=N)N)NC(=O)[C@H](CC(=O)O)NC(=O)[C@H](CC(C)C)NC(=O)[C@@H]2CCCN2C(=O)[C@H](CC(C)C)NC(=O)CNC(=O)[C@H](Cc2ccccc2)NC(=O)[C@@H](NC(=O)CNC(=O)[C@H](CCC(N)=O)NC(=O)[C@H](CO)NC(=O)[C@H](CC(C)C)NC(=O)CNC(=O)[C@H](CCCCN)NC(=O)[C@H](CCCCN)NC(=O)[C@H](CCC(N)=O)NC(=O)[C@H](C)NC(=O)CNC(=O)[C@H](CCC(=O)O)NC(=O)[C@H](Cc2ccc(O)cc2)NC(=O)[C@H](CCCCN)NC(=O)[C@H](C)NC(=O)[C@H](C)NC(=O)[C@H](CCC(N)=O)NC(=O)[C@@H]2CCCN2C(=O)[C@H](Cc2c[nH]cn2)NC(=O)[C@H](CCC(=O)O)NC(=O)[C@H](CCC(N)=O)NC(=O)COCCOCCNC(=O)COCCOCCNC(=O)CC[C@H](NC(=O)CCCCCCCCCCCCCCCCC(=O)O)C(=O)O)CSSC[C@@H](C(=O)O)NC(=O)CNC(=O)[C@H](CC(C)C)NC(=O)CNC(=O)[C@H](CO)NC(=O)[C@H](CC(C)C)NC(=O)[C@H](CO)NC(=O)CNC1=O [compound 1395] ({C18 diacid-γGlu-AEEA-AEEA}-QEHPQAAKYEGAQKKGLSQGCFGLPLDRIGSLSGLGC-OH; disulfide 21-37) | 60.2
6 | CC[C@H](C)[C@@H]1NC(=O)[C@H](CCCNC(=N)N)NC(=O)[C@H](CC(=O)O)NC(=O)[C@H](CC(C)C)NC(=O)[C@@H]2CCCN2C(=O)[C@H](CC(C)C)NC(=O)CNC(=O)[C@H](Cc2ccccc2)NC(=O)[C@@H](NC(=O)CNC(=O)[C@H](CCC(N)=O)NC(=O)[C@H](CO)NC(=O)[C@H](CC(C)C)NC(=O)CNC(=O)[C@H](CCCCN)NC(=O)[C@H](CCCCN)NC(=O)[C@H](CCC(N)=O)NC(=O)[C@H](C)NC(=O)CNC(=O)[C@H](CCC(=O)O)NC(=O)[C@H](Cc2ccc(O)cc2)NC(=O)[C@H](CCCCN)NC(=O)[C@H](CCCNC(=N)N)NC(=O)[C@H](C)NC(=O)[C@H](CCC(N)=O)NC(=O)[C@@H]2CCCN2C(=O)[C@H](Cc2c[nH]cn2)NC(=O)[C@H](CCC(=O)O)NC(=O)[C@H](CCC(N)=O)NC(=O)COCCOCCNC(=O)COCCOCCNC(=O)CC[C@H](NC(=O)CC[C@H](NC(=O)CCCCCCCCCCCCCCCCC(=O)O)C(=O)O)C(=O)O)CSSC[C@@H](C(=O)O)NC(=O)CNC(=O)[C@H](CC(C)C)NC(=O)CNC(=O)[C@H](CO)NC(=O)[C@H](CC(C)C)NC(=O)[C@H](CO)NC(=O)CNC1=O [compound 1396] ({C18 diacid-γGlu-γGlu-AEEA-AEEA}-QEHPQARKYEGAQKKGLSQGCFGLPLDRIGSLSGLGC-OH; disulfide 21-37) | 43.1
